This note sets out measurements from patent publication US7906533B2, “Nicotinamide pyridinureas as vascular endothelial growth factor (VEGF) receptor kinase inhibitors” (Bayer Schering Pharma AG, priority 2004, dated 2011).

Each structure is given as a SMILES string.

As a reminder, the melting point is the temperature, or range, at which the solid turns liquid. For orientation: IC50 means the point on the concentration scale where inhibition reaches its midpoint.

The target in one series is T1, KDR-Kinase (VEGFR-2) (Homo sapiens, UniProt P35968).
T1 construct: GST-kinase domain fusion construct of the KDR kinase; GST
Description: KDR Kinase Inhibition. It is filed as biochemical. The note with it: GST-kinase domain fusion construct of the KDR kinase; poly(Glu4Tyr) substrate, 32P-γATP. As for the experimental part: Kinase activity was measured with a GST-kinase domain fusion construct of the KDR kinase according to the following protocol to obtain concentration response curves. Components were added into a microtiterplate in the following sequence: 10 μl of inhibitor in threefold final concentration [3% DMSO in buffer (40 mM Tris Cl pH 7.5; 1 mM DTT, 1 mM MnCl2, 10 mM MgCl2, 2.5 Promille Polyethyleneglycol 20000)] and 10 μl of substrate mixture [24 μM ATP, 24 μg/ml poly(Glu4Tyr) in buffer, specific activity approx. 500 cpm/pmol ^32P-γATP]. Reaction was started by adding 10 μl of enzyme preparation diluted appropriately in buffer that contains 10 μM vanadate. After incubation for exactly 10 min the reaction was stopped by adding of 10 μl stop solution (250 mM EDTA). 10 μl of the reaction mixture were transferred to phosphocellulose filters. The filters were washed in 0.1% phosphoric acid, dried before meltilex scintillator was applied (Wallac, Perkin-Elmer) and the radioactivity was counted.

The target in series [1] is T2, human Cytochrome P 450 isoenzyme 2C9 (Homo sapiens, UniProt P11712).
T2 construct: host or cells: baculovirus/insect cells
Description: Cytochrome P450 Inhibition (2C9). Format: in vitro ADME. The note with it: baculovirus/insect cell-expressed human isoenzyme; read-out: IC50 CYP 2C9. As for the experimental part: (§1) The Cytochrome P450 isoenzyme inhibition was performed according to the publication of Crespi et al. (Anal. Biochem., 1997, 248, 188-190) with use of the baculovirus/insect cell-expressed, human Cytochrome P 450 isoenzymes (2C9 and 2C19).

Series [2] addresses T3, human Cytochrome P 450 isoenzyme 2C19 (Homo sapiens, UniProt P33261).
T3 construct: host or cells: baculovirus/insect cells
Description: Cytochrome P450 Inhibition (2C19). It is filed as in vitro ADME. The note with it: baculovirus/insect cell-expressed human isoenzyme; read-out: IC50 CYP 2C19. As for the experimental part: as §1

T2 sequence (P11712 whole entry): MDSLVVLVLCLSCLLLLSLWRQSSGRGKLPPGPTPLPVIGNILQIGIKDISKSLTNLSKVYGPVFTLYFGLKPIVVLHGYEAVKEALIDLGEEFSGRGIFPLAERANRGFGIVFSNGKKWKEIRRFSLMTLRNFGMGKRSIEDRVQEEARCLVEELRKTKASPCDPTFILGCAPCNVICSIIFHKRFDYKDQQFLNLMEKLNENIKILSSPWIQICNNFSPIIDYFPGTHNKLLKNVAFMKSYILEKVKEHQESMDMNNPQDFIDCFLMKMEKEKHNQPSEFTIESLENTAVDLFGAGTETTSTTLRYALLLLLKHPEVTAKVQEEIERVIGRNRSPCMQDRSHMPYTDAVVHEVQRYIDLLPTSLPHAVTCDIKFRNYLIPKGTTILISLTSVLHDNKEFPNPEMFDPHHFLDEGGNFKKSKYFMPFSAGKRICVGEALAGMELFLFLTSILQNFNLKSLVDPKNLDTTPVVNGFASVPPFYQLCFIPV
T3 sequence (P33261 whole entry): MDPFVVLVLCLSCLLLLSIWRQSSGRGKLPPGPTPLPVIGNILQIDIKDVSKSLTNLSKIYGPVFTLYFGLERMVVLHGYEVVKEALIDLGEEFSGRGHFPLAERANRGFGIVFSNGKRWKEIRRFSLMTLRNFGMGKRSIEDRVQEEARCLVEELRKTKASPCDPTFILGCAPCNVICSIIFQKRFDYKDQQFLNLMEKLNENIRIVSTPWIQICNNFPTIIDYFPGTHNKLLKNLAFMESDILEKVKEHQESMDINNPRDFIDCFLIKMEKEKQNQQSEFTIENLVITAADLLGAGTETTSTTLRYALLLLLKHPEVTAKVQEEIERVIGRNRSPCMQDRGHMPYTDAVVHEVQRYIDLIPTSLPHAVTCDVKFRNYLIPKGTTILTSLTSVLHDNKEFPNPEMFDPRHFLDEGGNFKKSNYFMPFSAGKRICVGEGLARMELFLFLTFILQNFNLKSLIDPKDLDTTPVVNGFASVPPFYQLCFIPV
T1 sequence (P35968 834-1162 limits assumed, species assumed): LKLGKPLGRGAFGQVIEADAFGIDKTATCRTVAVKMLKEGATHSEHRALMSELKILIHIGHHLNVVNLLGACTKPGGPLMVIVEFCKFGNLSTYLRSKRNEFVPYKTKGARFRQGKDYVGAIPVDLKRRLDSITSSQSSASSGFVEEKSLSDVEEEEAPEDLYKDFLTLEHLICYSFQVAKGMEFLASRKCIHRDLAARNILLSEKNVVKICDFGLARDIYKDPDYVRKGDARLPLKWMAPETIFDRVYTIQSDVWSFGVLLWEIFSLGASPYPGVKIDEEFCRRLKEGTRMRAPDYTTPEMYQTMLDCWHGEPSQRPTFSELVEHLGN

With `CNC(=O)Nc1cc(CNc2ncccc2C(=O)Nc2cc3ccccc3cn2)ccn1` [Example 1.3, N-isoquinolin-3-yl-2-{[2-(3-methyl-ureido)-pyridin-4-ylmethyl]-amino}-nicotinamide], the melting point lay in the range of 191 to 192 °C.

On to `CNC(=O)Nc1cc(CNc2ncccc2C(=O)Nc2cccc(C(F)(F)F)c2)ccn1` [Example 1.1, 2-{[2-(3-methyl-ureido)-pyridin-4-ylmethyl]-amino}-N-(3-trifluoromethyl-phenyl)-nicotinamide], for which the melting point is 206 to 207 °C.

`CNC(=O)Nc1cc(CNc2ncccc2C(=O)Nc2ccc3c(cnn3C)c2)ccn1` [Example 1.4, N-(1-methyl-1H-indazol-5-yl)-2-{[2-(3-methyl-ureido)-pyridin-4-ylmethyl]-amino}-nicotinamide] had a melting point of 219 to 220 °C. Take `CNC(=O)Nc1cc(CNc2ncccc2C(=O)Nc2ccc3cn(C)nc3c2)ccn1` [Example 1.0, N-(2-methyl-2H-indazol-6-yl)-2-{[2-(3-methyl-ureido)-pyridin-4-ylmethyl]-amino}-nicotinamide]: the melting point was in the range of 205 to 207 °C. Also, on KDR-Kinase (VEGFR-2), half-maximal inhibition (IC50) required 0.01 µM. The IC50 in series [1] was 11.7 µM. Also, the IC50 in series [2] was over 30 µM. For `Cn1cc2ccc(NC(=O)c3cccnc3NCc3ccnc(NC(=O)N4CCOCC4)c3)cc2n1` [Example 2.0, morpholine-4-carboxylic acid (4-{[3-(2-methyl-2H-indazol-6-ylcarbamoyl)-pyridin-2-ylamino]-methyl}-pyridin-2-yl)-amide], the results for the IC50 (on KDR-Kinase (VEGFR-2); in series [1]; in series [2]) were 0.029 µM, over 30 µM and over 30 µM, respectively. `CNC(=O)Nc1cc(CNc2ncccc2C(=O)Nc2ccc3cnn(C)c3c2)ccn1` [Example 1.2, N-(1-methyl-1H-indazol-6-yl)-2-{[2-(3-methyl-ureido)-pyridin-4-ylmethyl]-amino}-nicotinamide] had a melting point of 228 to 229 °C.
